Article PMC10233092, “Selective Janus kinase 1 inhibition resolves inflammation and restores hair growth offering a viable treatment option for alopecia areata” (Skin Health and Disease, 2023)
“And” between values parts separate entries of the source, which are not always exact repeats. Equal entries are not always repeated.

Legend:
JAK1 = JAK1 (Homo sapiens, UniProt P23458); assay: JAK1 kinase inhibition, Calliper assay; format: biochemical; settings: physiological ATP concentration of 5 mM
Basic pKa = format: physicochemical; settings: read-out: Basic pKa's
Source text: TABLE 2 In vitro and in vivo DMPK properties of Cmpd A, B & C | column: In vitro mouse & physical chemical properties / Basic pKa's

[1] = tested on: C3H/HeJ mouse model of AA; assay: Hair growth (Hair Index Score) in C3H/HeJ graft-induced AA mice; format: in vivo; settings: for Hair index score (% area x score, 0 to 3): individual mice and mean±SD
Description: Female C3H/HeJ graft‐induced mice were used as a preclinical model of Alopecia Areata (AA) according to previous publications.[45], [46], [47] Healthy C3H/HeJ and mice with fully developed AA (16–24 weeks after induction of disease) were monitored by means of body weight and hair index score on a weekly basis for 12 weeks, with free access to food and water (Healthy and AA groups, respectively).
Hair growth was evaluated using a scoring index (Hair Index Score, HIS). A score from 0 to 3 (0 = no fur, 1 = stubble, short broken hairs, 2 = sparse, intermediate length hairs, 3 = normal length and density hairs) was taken times the surface area of the mouse with each respective score (dorsal area = 50%, ventral area = 50%).
12 mice were given once daily servings of Cmpd A for free eating at approximately 100 mg/kg (compound dissolved in 10 ml tap water and mixed with 5 g grounded R70 standard rodent chow from Lantmännen, Sweden) for 4 weeks. Typically, these servings were finished within 2 h. Six mice were terminated at the end of the treatment period, blood and skin taken for determination of drug concentration and skin sampled for histopathological evaluation (see below, these mice are representing the systemic JAK1 inhibition group in histopathological evaluations). Skin biopsies for mRNA expression and blood was sampled from the other 6 mice where after these mice were followed off treatment for an additional 8 weeks when terminal samples were taken (8w off Tx group).
Another set of 6 mice were treated topically on the right side of their back with Cmpd B (0.1% cream formulation, Eucerin Aquaporin rich) for 12 weeks (local JAK1 inhibition group). Initially, twice weekly for 2 weeks followed by once weekly due to high tissue retention. Plasma exposure was evaluated during the course of the study as well as at termination when also skin was sampled for exposure, histopathological evaluation and mRNA expression.
The aim of the study was to achieve similar skin exposures by both routes of administration but only systemic exposure after oral administration. […] Blood, skin, lymph nodes and spleens were collected at termination for evaluation of exposure, mRNA expression, histopathology (RNAScope) and cell differentials (flow cytometry). Untreated healthy and alopecic mice served as controls (n = 6).

JAK3 = target: T1, JAK3 (Homo sapiens, UniProt P52333); assay: JAK3 kinase inhibition, Calliper assay; format: biochemical; settings: physiological ATP concentration of 5 mM
T1 sequence (P52333 1-1124): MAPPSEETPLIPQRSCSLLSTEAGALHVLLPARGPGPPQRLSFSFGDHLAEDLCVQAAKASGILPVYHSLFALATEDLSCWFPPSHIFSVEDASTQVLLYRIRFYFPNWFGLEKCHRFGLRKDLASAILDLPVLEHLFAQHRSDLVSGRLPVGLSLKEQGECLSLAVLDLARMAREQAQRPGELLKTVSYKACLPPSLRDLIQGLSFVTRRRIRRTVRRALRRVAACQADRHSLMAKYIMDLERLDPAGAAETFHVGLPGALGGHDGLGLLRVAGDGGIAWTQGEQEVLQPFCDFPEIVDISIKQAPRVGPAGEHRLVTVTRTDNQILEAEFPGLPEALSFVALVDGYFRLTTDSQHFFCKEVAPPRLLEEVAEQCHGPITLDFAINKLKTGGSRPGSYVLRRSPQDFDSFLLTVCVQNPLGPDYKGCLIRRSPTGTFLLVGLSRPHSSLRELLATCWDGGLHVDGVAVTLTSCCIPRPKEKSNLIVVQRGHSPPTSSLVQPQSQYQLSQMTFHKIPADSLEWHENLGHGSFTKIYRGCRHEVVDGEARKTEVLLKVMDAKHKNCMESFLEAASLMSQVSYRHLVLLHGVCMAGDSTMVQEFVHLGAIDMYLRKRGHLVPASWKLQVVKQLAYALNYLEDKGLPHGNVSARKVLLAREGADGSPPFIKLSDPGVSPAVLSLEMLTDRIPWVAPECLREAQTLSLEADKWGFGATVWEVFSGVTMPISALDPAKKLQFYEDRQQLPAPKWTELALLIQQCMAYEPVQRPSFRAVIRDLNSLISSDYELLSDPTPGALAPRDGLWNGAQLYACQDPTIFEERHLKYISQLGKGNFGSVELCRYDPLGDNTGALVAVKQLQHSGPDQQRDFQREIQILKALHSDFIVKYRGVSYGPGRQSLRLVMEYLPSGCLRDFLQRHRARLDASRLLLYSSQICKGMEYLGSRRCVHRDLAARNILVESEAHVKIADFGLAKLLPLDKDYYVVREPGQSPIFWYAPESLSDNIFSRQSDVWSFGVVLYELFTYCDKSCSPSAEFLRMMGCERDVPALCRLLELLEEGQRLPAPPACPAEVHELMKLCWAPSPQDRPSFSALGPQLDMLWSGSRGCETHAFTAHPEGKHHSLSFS

[2] = Mouse pharmacokinetics i.v./p.o.; format: in vivo; settings: plasma, male C57Bl6 mice
Description: Detailed description in Supplementary materials.
Pharmacokinetics and evaluation of compound exposures: Male C57/BL mice were obtained from Si Bei Fu and weighed approximately 20-30 grams (7-9 weeks) at the start of the pharmacokinetic study. Animals had free access to food and water during the course of the experiment. Dose formulations were prepared on the study day and were stirred at room temperature for at least 15 minutes prior dosing and during the administration event. Cmpd A, B and C were dosed at 0.5-1 mg/kg i.v. and 1-300 mg/kg p.o. The dorsal metatarsal vein was used for sampling and typically 0.02 mL blood was withdrawn. Blood was taken at 2, 5, 15, 45 min, 2, 4, 8, 24 hours post the i.v. dose and at 15, 30 min, 1, 2, 4, 8, 24 hours post the p.o. dose. Blood of each sample was transferred into plastic micro centrifuge tubes containing 2 μL of 1000 IU Heparin-Na anticoagulant. These tubes were then inverted several times and placed on wet ice prior to centrifugation at 10,000 rpm for 2 minutes at 4°C in order to collect plasma. Plasma samples were stored at -75±15°C prior analysis. Compound concentrations were analyzed using a LC-MS/MS method (see below).
Effective T1/2 equals Ln2 x Vss/CL.

JAK1, sequence (P23458 whole entry, species assumed): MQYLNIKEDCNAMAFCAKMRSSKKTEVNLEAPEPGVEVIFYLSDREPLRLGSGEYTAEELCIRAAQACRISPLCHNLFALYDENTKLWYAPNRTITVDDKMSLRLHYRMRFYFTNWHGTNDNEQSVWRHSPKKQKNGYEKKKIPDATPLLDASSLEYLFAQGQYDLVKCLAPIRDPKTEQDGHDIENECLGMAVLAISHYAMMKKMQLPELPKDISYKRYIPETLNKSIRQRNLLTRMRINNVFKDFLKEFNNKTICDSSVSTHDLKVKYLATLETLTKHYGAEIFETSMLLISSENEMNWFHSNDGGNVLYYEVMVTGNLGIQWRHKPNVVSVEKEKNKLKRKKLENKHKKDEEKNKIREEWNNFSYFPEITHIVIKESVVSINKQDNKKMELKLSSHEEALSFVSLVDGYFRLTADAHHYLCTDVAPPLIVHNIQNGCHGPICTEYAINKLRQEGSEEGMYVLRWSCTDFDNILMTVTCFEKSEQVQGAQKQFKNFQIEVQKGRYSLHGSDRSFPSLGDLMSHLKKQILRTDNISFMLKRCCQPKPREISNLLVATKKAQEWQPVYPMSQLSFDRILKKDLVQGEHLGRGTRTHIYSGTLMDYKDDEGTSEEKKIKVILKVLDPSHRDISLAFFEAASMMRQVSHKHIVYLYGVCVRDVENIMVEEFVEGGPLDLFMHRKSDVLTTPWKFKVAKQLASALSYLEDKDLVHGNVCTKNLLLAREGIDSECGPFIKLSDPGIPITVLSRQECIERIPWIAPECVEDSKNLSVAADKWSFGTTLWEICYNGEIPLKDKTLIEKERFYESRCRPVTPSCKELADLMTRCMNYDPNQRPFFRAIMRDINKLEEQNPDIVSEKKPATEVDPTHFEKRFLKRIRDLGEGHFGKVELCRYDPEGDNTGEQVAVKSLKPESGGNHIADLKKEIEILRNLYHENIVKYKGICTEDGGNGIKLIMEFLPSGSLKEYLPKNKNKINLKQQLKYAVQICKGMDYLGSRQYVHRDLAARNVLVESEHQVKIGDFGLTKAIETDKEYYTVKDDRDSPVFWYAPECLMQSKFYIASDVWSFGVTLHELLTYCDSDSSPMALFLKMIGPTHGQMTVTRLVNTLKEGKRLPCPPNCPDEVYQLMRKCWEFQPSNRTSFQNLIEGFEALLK

Cc1cnc(Nc2cccnc2F)nc1-c1c[nH]c2c(NC(=O)[C@@H](C)N3CCN(C)CC3)cccc12 [Cmpd A]
IC50 (JAK1): 0.027 µM
pKa (Basic pKa): 7.9
remission after treatment cessation ([1]; AA mice, 4 weeks treatment, followed 8 weeks off treatment): relapsed after treatment cessation
hair growth, result in words ([1]; AA mice, oral daily servings (systemic exposure)): quick and complete restoration of hair growth
time to complete regrowth (Hair Index Score) ([1]; AA mice, oral treatment, n = 6 per group): ≤ 4 weeks
Hair index score (% area x score, 0 to 3) ([1]; Systemic JAK1i group terminated at w4 (oral ~100 mg/kg daily), w0, n=6, 100 mg/kg): 0 and 20
Hair index score (% area x score, 0 to 3) ([1]; Systemic JAK1i group terminated at w4 (oral ~100 mg/kg daily), w0, n=6, 100 mg/kg, mean): 3±8
Hair index score (% area x score, 0 to 3) ([1]; Systemic JAK1i group terminated at w4, w1): 0 and 15 and 10
Hair index score (% area x score, 0 to 3) ([1]; Systemic JAK1i group terminated at w4, w1, mean): 7±7
Hair index score (% area x score, 0 to 3) ([1]; Systemic JAK1i group terminated at w4, w2): 160 and 170 and 180 and 120 and 190
Hair index score (% area x score, 0 to 3) ([1]; Systemic JAK1i group terminated at w4, w2, mean): 163±24
Hair index score (% area x score, 0 to 3) ([1]; Systemic JAK1i group terminated at w4, w3): 280 and 285 and 290 and 250 and 295
Hair index score (% area x score, 0 to 3) ([1]; Systemic JAK1i group terminated at w4, w3, mean): 280±16
Hair index score (% area x score, 0 to 3) ([1]; Systemic JAK1i group terminated at w4, w4): 300
Hair index score (% area x score, 0 to 3) ([1]; Systemic JAK1i group terminated at w4, w4, mean): 300±0
Hair index score (% area x score, 0 to 3) ([1]; Systemic JAK1i group treated 4 weeks then followed off treatment, w0, n=6): 125 and 50 and 20 and 90
Hair index score (% area x score, 0 to 3) ([1]; Systemic JAK1i group treated 4 weeks then followed off treatment, w0, n=6, mean): 71±38
Hair index score (% area x score, 0 to 3) ([1]; Systemic JAK1i group treated 4 weeks then off treatment, w1): 125 and 50 and 20 and 90
Hair index score (% area x score, 0 to 3) ([1]; Systemic JAK1i group treated 4 weeks then off treatment, w1, mean): 71±38
Hair index score (% area x score, 0 to 3) ([1]; Systemic JAK1i group treated 4 weeks then off treatment, w2): 170 and 200 and 140 and 180 and 190
Hair index score (% area x score, 0 to 3) ([1]; Systemic JAK1i group treated 4 weeks then off treatment, w2, mean): 180±23
Hair index score (% area x score, 0 to 3) ([1]; Systemic JAK1i group treated 4 weeks then off treatment, w4): 285 and 295 and 300
Hair index score (% area x score, 0 to 3) ([1]; Systemic JAK1i group treated 4 weeks then off treatment, w4, mean): 295±5
Hair index score (% area x score, 0 to 3) ([1]; Systemic JAK1i group treated 4 weeks then off treatment, w8 (4 weeks off)): 245 and 200 and 210 and 195 and 270 and 75
Hair index score (% area x score, 0 to 3) ([1]; Systemic JAK1i group treated 4 weeks then off treatment, w8 (4 weeks off), mean): 199±67
Hair index score (% area x score, 0 to 3) ([1]; Systemic JAK1i group treated 4 weeks then off treatment, w12 (8 weeks off)): 90 and 60 and 85 and 45 and 205 and 35
Hair index score (% area x score, 0 to 3) ([1]; Systemic JAK1i group treated 4 weeks then off treatment, w12 (8 weeks off), mean): 87±62
IC50 (JAK3): > 30 µM
clearance ([2]; iv, i.v. 0.5-1.0 mg/kg): 32 mL/min/kg
Vd ([2]; iv, i.v. 0.5-1.0 mg/kg, read-out: V ss): 9.1 L/kg
bioavailability ([2]; po, p.o. 300 (A), 1.0 (B), 2.0 (C) mg/kg, read-out: Oral % F): 100%
